Test results reported in PubChem BioAssay AID1218 (NMMLSC, 2008).
Records with an inconclusive call do not appear. The source made the active and inactive calls.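 How the source made its calls: active means score of 100, meaning the red fluorescent reporter moved fully into the nucleus as with estrogen, or estrogen's effect was fully blocked; inactive means score of 0 or 50, meaning partial or no effect.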

Target: Estrogen receptor beta (Homo sapiens) (UniProt Q92731)
Assay: estrogen receptor beta signaling via PH-RFP translocation – imaging, Cos7 cells, ERbeta-GFP, PH-RFP reporter, orthogonal assay for ERbeta ligand project, confirmation (AID 1218)
Conditions: PIP3 translocation imaging, at 10 µM, active compounds read high

Sequence of Estrogen receptor beta (Homo sapiens) (Q92731 whole entry, looked up): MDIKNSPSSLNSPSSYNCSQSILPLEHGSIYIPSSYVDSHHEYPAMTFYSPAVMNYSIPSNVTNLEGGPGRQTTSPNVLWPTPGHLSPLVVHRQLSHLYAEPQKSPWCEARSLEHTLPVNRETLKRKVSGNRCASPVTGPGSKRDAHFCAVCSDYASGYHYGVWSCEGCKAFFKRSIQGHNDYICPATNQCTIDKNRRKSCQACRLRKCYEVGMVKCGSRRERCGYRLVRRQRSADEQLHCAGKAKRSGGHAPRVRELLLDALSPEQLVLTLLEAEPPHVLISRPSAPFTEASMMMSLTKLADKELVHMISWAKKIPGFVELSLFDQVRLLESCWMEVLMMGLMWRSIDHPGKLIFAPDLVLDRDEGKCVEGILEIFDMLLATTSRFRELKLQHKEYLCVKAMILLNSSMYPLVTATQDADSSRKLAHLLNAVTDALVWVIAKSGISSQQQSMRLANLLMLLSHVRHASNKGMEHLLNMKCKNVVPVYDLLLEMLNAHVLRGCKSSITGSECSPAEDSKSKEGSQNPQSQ

Compound: COc1cccc(NS(=O)(=O)c2ccc3c(c2)C2C=CCC2C(c2ccc(C(=O)O)cc2)N3)c1 (stereo not drawn)
- response score: 50 (inactive)

Compound: Cc1cc(C)c2c(c1)[C@@H]1C=CC[C@@H]1[C@H](c1ccc(S(=O)(=O)N3CCOCC3)cc1)N2
- response score: 100

Compound: Brc1cc2c(cc1C1Nc3ccccc3C3C=CCC31)OCO2 (stereo not drawn)
- response score: 0 (inactive)

Compound: O=C(O)c1cc(Cl)c2c(c1)[C@@H]1C=CC[C@@H]1[C@H](c1ccc(S(=O)(=O)N3CCOCC3)cc1)N2
- response score: 50 (inactive)

Compound: O=C(O)c1ccc2c(c1)C1C(Cl)C(Sc3ccccc3[N+](=O)[O-])CC1C(c1cccc([N+](=O)[O-])c1)N2 (stereo not drawn)
- response score: 0 (inactive)

Compound: COc1ccccc1N1CCN(C(=O)c2ccc3nc(-c4ccco4)c(-c4ccco4)nc3c2)CC1
- response score: 100

Compound: Cc1cc(-c2nn3c(-c4ccccc4)nnc3s2)c2ccccc2n1
- response score: 100

Compound: Nc1ncnc2c1ncn2C1CCC(CO)C(O)C1 (stereo not drawn)
- response score: 50 (inactive)
